The target in this test is T1, RIPK3 (Homo sapiens, UniProt Q9Y572).
T1 construct: purchased Thermo Fisher Scientific (Life Technologies) SelectScreen
The test is described as follows: SelectScreen LanthaScreen. Format: binding. Particulars: read-out: % displacement. A digest of the protocol: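 NU5455 was profiled across the SelectScreen Broad panel of kinase activity and binding assays. Z'LYTE reactions such as CSF1R ran at apparent Km ATP, while the Adapta CAMK1 assay used ATP listed as 10. Values are given as percent.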

T1 sequence (Q9Y572 whole entry): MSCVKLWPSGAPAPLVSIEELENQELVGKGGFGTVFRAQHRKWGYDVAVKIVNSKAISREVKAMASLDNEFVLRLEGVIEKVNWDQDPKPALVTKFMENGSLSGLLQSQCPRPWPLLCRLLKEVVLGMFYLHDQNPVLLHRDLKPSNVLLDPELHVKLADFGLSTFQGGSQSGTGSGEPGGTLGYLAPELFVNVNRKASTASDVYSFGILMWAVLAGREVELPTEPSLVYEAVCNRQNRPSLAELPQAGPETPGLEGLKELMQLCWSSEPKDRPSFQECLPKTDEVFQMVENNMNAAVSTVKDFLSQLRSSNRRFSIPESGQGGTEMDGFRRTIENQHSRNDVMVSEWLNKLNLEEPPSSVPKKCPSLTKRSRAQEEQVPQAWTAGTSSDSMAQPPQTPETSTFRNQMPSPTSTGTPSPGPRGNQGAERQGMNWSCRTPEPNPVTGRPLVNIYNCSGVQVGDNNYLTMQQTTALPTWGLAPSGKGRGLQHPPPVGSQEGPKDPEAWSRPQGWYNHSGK

As to `CN(C(=O)CN1CCOCC1)c1ccc2sc3c(-c4cccc5c(=O)cc(N6CC7CCC(C6)O7)oc45)cccc3c2c1` [NU5455], the inhibition at 1 µM was -2.3%.

Values taken from publication PMC6934184, “Selective DNA-PKcs inhibition extends the therapeutic index of localized radiotherapy and chemotherapy” (The Journal of Clinical Investigation, 2019).
